One assay concerns NT2. Put plainly: Inhibitory concentration required against NT2 cells. To be noted: Homo sapiens.
For the next assay, the target named is T1, Caspase-3 (Homo sapiens, UniProt P42574).
T1 sequence (P42574 whole entry): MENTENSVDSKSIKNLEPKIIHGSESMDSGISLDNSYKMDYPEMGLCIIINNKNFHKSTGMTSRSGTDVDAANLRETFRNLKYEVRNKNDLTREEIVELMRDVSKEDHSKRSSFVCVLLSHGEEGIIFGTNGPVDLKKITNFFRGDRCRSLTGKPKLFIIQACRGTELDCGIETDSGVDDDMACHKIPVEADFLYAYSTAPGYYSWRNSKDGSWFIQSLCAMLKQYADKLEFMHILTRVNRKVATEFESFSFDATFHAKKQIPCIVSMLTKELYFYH
The assay is described as follows: Inhibitory concentration required against human Caspase-3.

Where only a bound is given, the exact number is not on record here.

In the assay with NT2, `O=C(O)C[C@H](NC(=O)c1cncc(S(=O)(=O)NC2CC2)c1)C(=O)Oc1ccccc1` registered an IC50 of 4.3 µM.

In the assay on NT2, `CN(C1CC1)S(=O)(=O)c1cncc(C(=O)N[C@@H](CC(=O)O)C(=O)CSCc2ccc(F)cc2)c1` gave a half-inhibitory concentration (IC50) of 22 µM. Against the preceding compound, the IC50 is about 5.1-fold higher.

Regarding `CCCN(CCC)S(=O)(=O)c1cncc(C(=O)N[C@@H](CC(=O)O)C(=O)CSCc2ccc(F)cc2)c1`, the IC50 in the assay on NT2 worked out at 25 µM.

With `CC(C)CN(CC(C)C)C(=O)c1cncc(C(=O)N[C@@H](CC(=O)O)C(=O)CSCc2ccc(F)cc2)c1`, the IC50 in the assay with NT2 stood at 39 µM.

In the assay on NT2, `CC(=O)N[C@@H](CC(=O)O)C(=O)N[C@@H](CCC(=O)O)C(=O)N[C@H](C(=O)N[C@H](C=O)CC(=O)O)C(C)C` showed an IC50 of more than 100 µM.

As to `O=C(O)C[C@H](NC(=O)c1cncc(S(=O)(=O)NCc2ccccc2)c1)C(=O)CSCc1ccc(F)cc1`, the IC50 in the assay on NT2 was determined as 59 µM. That is a double-digit micromolar value.

Consider `O=C[C@H](CC(=O)O)NC(=O)c1cncc(S(=O)(=O)NC2CC2)c1`, for which the IC50 with NT2 stood at 57 µM. This IC50 and that of the compound before are within 1.5-fold of each other.

Turning to `CCN(C(=O)c1cncc(C(=O)N[C@@H](CC(=O)O)C(=O)CSCc2ccc(F)cc2)c1)C(C)C`, the IC50 in the assay with NT2 turned out to be 16 µM.

`CN(C)S(=O)(=O)c1cncc(C(=O)N[C@@H](CC(=O)O)C(=O)CSCc2ccc(F)cc2)c1` registered an IC50 in the assay with NT2 of 21 µM.

On to `CCN(CC)C(=O)c1cncc(C(=O)N[C@@H](CC(=O)O)C(=O)CSCc2ccc(F)cc2)c1`, for which, in the assay with NT2, the 50% inhibitory concentration (IC50) is more than 100 µM.

The compound `O=C(O)C[C@H](NC(=O)c1cncc(S(=O)(=O)NC2CC2)c1)C(=O)CSCc1ccc(F)cc1` registered an IC50 with NT2 of 8 µM. This lies in the single-digit micromolar range.

Compound `CCCN(CCC)C(=O)c1cncc(C(=O)N[C@@H](CC(=O)O)C(=O)CSCc2ccc(F)cc2)c1` showed a half-maximal inhibitory concentration (IC50) in the assay on NT2 of more than 100 µM.

As for `CCN(CC)S(=O)(=O)c1cncc(C(=O)N[C@@H](CC(=O)O)C(=O)CSCc2ccc(F)cc2)c1`, in the assay with NT2, it took 12 µM to reach half-maximal inhibition (IC50). In other words, the double-digit micromolar range.

At Caspase-3, `O=C[C@H](CC(=O)O)NC(=O)c1ccncc1` returned a 50% inhibitory concentration (IC50) of more than 200 µM.

`O=C(O)C[C@H](NC(=O)c1cncc(S(=O)(=O)NC2CC2)c1)C(=O)COC(=O)c1cccc2ccccc12` came in with a 50% inhibitory concentration (IC50) in the assay on NT2 of 1.3 µM.

For `O=C(O)C[C@H](NC(=O)c1cncc(S(=O)(=O)NC2CC2)c1)C(=O)CNCc1c(F)cccc1F`, half-maximal inhibition in the assay with NT2 (IC50) was put at 53 µM. Compared with the last compound, the IC50 is about 41-fold higher.

Usually IC50 stands for the concentration that gives 50% inhibition. Lower therefore signals greater potency in that assay.

Source of the values: ChEMBL document CHEMBL1136077, “Nicotinyl aspartyl ketones as inhibitors of caspase-3” (Bioorg Med Chem Lett, 2003).
